Literature values as cited in patent US10765633B2, “Formulation comprising liposomes” (Eisai R&D Management Co., Ltd., priority 2018, dated 2020).

Tested on: HDL
Conditions: binding of eritoran to HDL

CCCCCC/C=C\CCCCCCCCCC(=O)N[C@H]1[C@H](OC[C@H]2O[C@H](OP(=O)(O)O)[C@H](NC(=O)CC(=O)CCCCCCCCCCC)[C@@H](OCCCCCCCCCC)[C@@H]2O)O[C@H](COC)[C@@H](OP(=O)(O)O)[C@@H]1OCC[C@@H](CCCCCCC)OC [eritoran, Eritoran]
effect of binding to HDL on drug activity: time-dependent loss of drug activity
